System: ScAMT3;3
Details: labelled compound; 0-500 µM 15N-NH4+; 35-d-old N-starved plants; line 35S::ScAMT3;3 by results and Figure 4C (methods b28 say proScAMT3;3 line); residual qko uptake present; NH3 may be the transported

Km: 271 µM
SMILES: N [NH4+]
